In BindingDB's records for doi:10.1016/j.bmc.2021.116215 (Research Triangle Institute, 2021) one finds IC50 data, which are given here for one compound.

This assay deals with Cannabinoid receptor 1 (Homo sapiens, UniProt P21554). Put plainly: Allosteric antagonist activity at human CB1 receptor expressed in CHO-RD-HGA16 cells overexpressing Galpha16 assessed as inhibition of CP55940-stimulated calcium mobilization preincubated for 15 mins followed by agonist addition and measured every 1 sec for 90 secs by Calcium-3 dye based FLIPR assay. In general terms: Calcium flux is commonly read through the fluorescence of an indicator in the cells.
Sequence of Cannabinoid receptor 1 (P21554 whole entry): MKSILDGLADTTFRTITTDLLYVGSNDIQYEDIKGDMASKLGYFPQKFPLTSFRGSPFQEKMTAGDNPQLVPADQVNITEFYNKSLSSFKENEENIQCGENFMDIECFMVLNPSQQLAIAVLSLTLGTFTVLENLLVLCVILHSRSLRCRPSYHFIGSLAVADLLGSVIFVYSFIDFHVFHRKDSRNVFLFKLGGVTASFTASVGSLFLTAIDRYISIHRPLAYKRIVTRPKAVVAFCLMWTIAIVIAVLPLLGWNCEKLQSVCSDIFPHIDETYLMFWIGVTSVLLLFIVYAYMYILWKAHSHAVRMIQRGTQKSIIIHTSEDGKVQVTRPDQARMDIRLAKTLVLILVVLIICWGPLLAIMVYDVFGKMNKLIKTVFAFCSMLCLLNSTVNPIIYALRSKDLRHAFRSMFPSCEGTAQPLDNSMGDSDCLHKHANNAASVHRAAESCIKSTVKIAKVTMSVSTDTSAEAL

The term IC50 denotes the concentration that gives 50% inhibition. For the compound `O=C(NC[C@H]1C[C@@H]1c1ccccc1)Nc1ccc(Cl)cc1`, the 50% inhibitory concentration (IC50) was found to be 2510 nM.
